Source: ChEMBL document CHEMBL1154424, “Effect of delayed pulsed-wave ultrasound on local pharmacokinetics and pharmacodynamics of vancomycin-loaded acrylic bone cement in vivo” (Antimicrob Agents Chemother, 2007)
≈ marks a conversion by molar mass, not a printed value.

Experiments:
Staphylococcus aureus [1] = experiment: (§1) Antimicrobial activity against Staphylococcus aureus ATCC 13565 infected in New Zealand white rabbit assessed as reduction of bacterial count in hip aspirates at 3 g administered drug-loaded in acrylic bone cement implanted in hips treated with 300 mW/cm2 normal ultrasound for 12 to 24 hrs after surgery; assay type: functional
Staphylococcus aureus [2] = experiment: as §1, with “per gram of femoral tissue” for “in hip aspirates”; assay type: functional
Staphylococcus aureus [3] = experiment: T>MIC in Staphylococcus aureus ATCC 13565 infected New Zealand white rabbit at 3 g administered drug-loaded acrylic bone cement implanted in hips at 3 g exposed to 300 mW/cm2 delayed ultrasound for 0 to 12 hrs; assay type: ADME, organism-based; details: in vivo, other
Staphylococcus aureus [4] = experiment: as §1, with “for 0 to” for “for”, “12” for “12 to 24”; assay type: functional
Staphylococcus aureus [5] = experiment: as §1, with “per gram of femoral tissue” for “in hip aspirates”, “for 0 to” for “for”, “12” for “12 to 24”; assay type: functional
Staphylococcus aureus [6] = experiment: T>MIC in Staphylococcus aureus ATCC 13565 infected New Zealand white rabbit at 3 g administered drug-loaded acrylic bone cement implanted in hips after 48 hrs surgery without ultrasound; assay type: ADME, organism-based; details: in vivo, other
Staphylococcus aureus [7] = experiment: microbe, parasite or virus in culture; details: ATCC 13565
Description: Antibacterial activity against Staphylococcus aureus ATCC 13565 by tube dilution method

Oryctolagus cuniculus [8] = experiment: Effect on local hemorrhage in Staphylococcus aureus ATCC 13565 infected New Zealand white rabbit hip assessed as total volume of drainage fluid at 3 g administered drug-loaded acrylic bone cement implanted in hips treated with 300 mW/cm2 normal ultrasound for 0 to 12 hrs after surgery; assay type: ADME, organism-based; details: in vivo, other
Oryctolagus cuniculus [9] = experiment: Effect on local hemorrhage in Staphylococcus aureus ATCC 13565 infected New Zealand white rabbit hip assessed as total volume of drainage fluid at 3 g administered drug-loaded acrylic bone cement implanted in hips treated with 300 mW/cm2 normal ultrasound for 12 to 24 hrs after surgery; assay type: ADME, organism-based; details: in vivo, other
Staphylococcus aureus [10] = experiment: T>MIC in Staphylococcus aureus ATCC 13565 infected New Zealand white rabbit at 3 g administered drug-loaded acrylic bone cement implanted in hips exposed to 300 mW/cm2 delayed ultrasound for 12 to 24 hrs; assay type: ADME, organism-based; details: in vivo, other

For CN[C@H](CC(C)C)C(=O)N[C@H]1C(=O)N[C@@H](CC(N)=O)C(=O)N[C@H]2C(=O)N[C@H]3C(=O)N[C@H](C(=O)N[C@H](C(=O)O)c4cc(O)cc(O)c4-c4cc3ccc4O)[C@H](O)c3ccc(c(Cl)c3)Oc3cc2cc(c3O[C@@H]2O[C@H](CO)[C@@H](O)[C@H](O)[C@H]2O[C@H]2C[C@](C)(N)[C@H](O)[C@H](C)O2)Oc2ccc(cc2Cl)[C@H]1O [VANCOMYCIN], the log10CFU/ml (Staphylococcus aureus [1]) was 2.77, the log10cfu (Staphylococcus aureus [2]) was 1.29 and the “T>MIC” value (Staphylococcus aureus [3]) was 13.59 h. For the same molecule, the log10CFU/ml (Staphylococcus aureus [4]) was 1.62, the log10cfu (Staphylococcus aureus [5]) was 0.53 and the “T>MIC” value (Staphylococcus aureus [6]) was 14.89 h. The MBC (Staphylococcus aureus [7]) was 3 µg/mL (≈ 2.07 µM), the Activity (Oryctolagus cuniculus [8]) was 4.65 mL and the Activity (Oryctolagus cuniculus [9]) was 1.32 mL. The “T>MIC” value (Staphylococcus aureus [10]) was 35.4 h.
